# In patent publication US10751351B2, “Medicament for treatment of diabetic foot infections” (Debiopharm International S.A., priority 2016, dated 2020):
# Read-outs that look alike come from different tables or passages of the source. Marks after values point to notes of the source that are not given here.
# Assays:
# [1] = system: Panton-Valentine leukocidin (PVL)-positive MRSA strain; experiment: Staphylococcus aureus-induced acute osteomyelitis in a rat model; assay type: in vivo; conditions: for mean reduction in bacterial burden compared to vehicle controls: after 3 weeks of treatment; for mean reduction in bacterial burden compared to vehicle controls / Bone cultures found negative (rats): Compound A 100 mg/kg po BID, vancomycin 100 mg/kg ip QD, fosfomycin 75 mg/kg ip QD; for Bone cultures found negative (rats): day 28, after 3 weeks of treatment
# Description: (§1) Minimum inhibitory concentration (MIC) assays were performed by broth microdilution using CLSI guidelines against 20 MRSA strains isolated from bone infections. Experimental osteomyelitis was induced through inoculation of the tibial medullary cavity with 7 log10 colony-forming unit (CFU) of a Panton-Valentine leukocidin (PVL)-positive MRSA strain on day 1. Animals were randomly assigned to the following treatment groups: Compound A 100 mg/kg po BID, vancomycin 100 mg/kg ip QD, fosfomycin 75 mg/kg ip QD and vehicle po BID for 3 weeks starting on day 8 post infection (n=6/group). CFU were enumerated in bone homogenates prior to treatment on day 8 in control animals and at the end of treatment period on day 28. Infected and non-infected bone and plasma samples were collected for quantification of Compound B by LC-MS/MS.
# MRSA clinical strain [2] = assay type: in vivo, rabbit; conditions: 4 days of treatment; for bacterial counts in BM and bone, result in words: versus vehicle; for Mean ± SD Δlog10 CFU/g of tissue (day 3-day 7), Bone marrow / Mean ± SD Δlog10 CFU/g of tissue (day 3-day 7), Epiphyseal bone: Compound A 12.5 mg/kg BID iv, vancomycin 100 mg/kg once daily constant iv infusion
# Description: (§2) MIC assays were performed by broth microdilution using CLSI guidelines. Osteomyelitis (OM) was induced in rabbit through inoculation of the knee with 10^8 CFU of an MRSA clinical strain after bone trepanation. On day 3 post-inoculation, surgical debridement was performed to mimic the clinical procedure. Samples of femoral red bone marrow (BM) and epiphyseal spongy bone were removed and bacterial counts were determined.
# On day 7 post-inoculation, the bacterial counts were determined in BM and bone samples. The treatment efficacy was assessed by comparing the bacterial counts before (day 3 after infection) and after (day 7 after infection) the antibacterial therapy. Infected and non-infected BM, bone and plasma samples were collected for quantification of Compound B by LC-MS/MS.
# MRSA clinical strain [3] = experiment: Staphylococcus aureus-induced acute osteomyelitis in a rabbit model (2), dose range; assay type: in vivo
# Description: (§3) MIC assays were performed by broth microdilution using CLSI guidelines. OM was induced in rabbit through inoculation of the knee with 10^8 CFU/mL of a MRSA clinical strain after bone trepanation. On day 3 post-inoculation, surgical debridement was performed to mimic the clinical procedure. Samples of femoral red bone marrow (BM) and epiphyseal spongy bone were removed and bacterial counts corresponding to day 3 after infection were determined. Treatments were started after 3 days of infection and lasted for 4 days with compound A at the dose level of 12.5, 6.25, 1.6, 0.4 or 0.1 mg/kg BID iv (4 h infusion) or its vehicle BID iv. On day 7 post-inoculation, the bacterial counts were determined in BM and bone samples. The treatment efficacy was assessed by comparing the bacterial counts before (day 3 after infection) and after (day 7 after infection) the antibacterial therapy.
# [4] = Bone and plasma quantification of Compound B by LC-MS/MS in rat osteomyelitis model; conditions: in vivo, Compound A 100 mg/kg po BID, no difference between infected and non-infected tibias, read-out: bone:plasma ratio of Compound B
# Description: as §1
# MRSA clinical strain [5] = experiment: MIC by broth microdilution against the MRSA isolate (Example 4); assay type: cell-based; conditions: Staphylococcus aureus, read-out: MIC for the MRSA isolate
# Description: as §2
# [6] = system: rabbit saphenous vein rings; experiment: In vitro vascular relaxation test in rabbit saphenous vein rings pre-contracted with noradrenaline; assay type: cell-based; conditions: for EC50: Oryctolagus cuniculus, saphenous vein rings pre-contracted with 1 μM noradrenaline, read-out: pD2 value (−log EC50) (converted); for relaxation of 1 μM noradrenaline pre-contracted preparations: DMSO-treated group −29±11%
# Description: The vascular relaxing effects of Compound B were evaluated using isolated rabbit saphenous venous tissue. Rabbits were sacrificed by a blow to the head followed by a cervical dislocation and exsanguination. A segment of the saphenous vein was carefully excised. Vein was cleaned of all fat and connective tissue and cut into 2.5 mm long rings. The rings were then mounted horizontally in 20-ml organ baths filled with Krebs's solution maintained at 37.7±0.5° C. and gassed with a mixture of 95% O2 and 5% CO2. Krebs's solution was made up as follows (mM): NaCl: 118.0/KCl: 5.0/CaCl2): 2.6/MgSO4 (7H2O): 1.2/NaHCO3: 24.9/KH2PO4: 1.2/glucose: 10.0. pH is 7.40±0.05. The rings were allowed to equilibrate for 60 minutes at an optimal resting tension of 1 g. Contractile tensions were measured using an isometric force transducer and signals were analyzed using a specialized software (IOX version 1.554, EMKA Technologies, Paris, France). Tissue viability was verified using three challenges to 80 mM KCl. The maximal contraction was reached after 3 challenges of KCl. Endothelium integrity was verified on the basis of the relaxation produced by 1 μM acetylcholine in rings precontracted with 1 μM noradrenaline. All experiments were performed on […] rings with endothelium. The method evaluated the effect of the test substance in pre-contracted preparations. The preparations were pre-contracted with an agonist (Noradrenaline at 1 μM) until a stable tonic contraction was reached. Six cumulative concentrations of the test or comparison substances were then added into the bath and relaxations were recorded to plot a concentration-response curve. Three preparations were exposed to DMSO, 0.1% over 6 consecutive periods for comparison to Compound B and cilostazol. Four preparations (obtained from 4 animals) were studied for the test and comparison substances. Three preparations were studied for the DMSO-treated group. The relaxation response to test substance was expressed as the percentage of inhibition of agonist-induced pre-contraction. The concentration of agonist inducing 50% of the maximum response (EC50) was determined from each individual concentration-response curve using linear regression. For each ring, the agonist potency (pD2) was calculated as −log (EC50).
# MRSA clinical strain [7] = experiment: MIC by broth microdilution against the MRSA isolate (Example 5); assay type: cell-based; conditions: Staphylococcus aureus, Example 5 isolate
# Description: as §3
# human PDE3B = human PDE3B (Homo sapiens, UniProt Q13370); experiment: PDE3 inhibition assay, Caliper mobility shift (PDE3B); assay type: biochemical; conditions: iFL-cAMP substrate, read-out: absolute IC50 PDE3B
# Chain of human PDE3B (Q13370 whole entry): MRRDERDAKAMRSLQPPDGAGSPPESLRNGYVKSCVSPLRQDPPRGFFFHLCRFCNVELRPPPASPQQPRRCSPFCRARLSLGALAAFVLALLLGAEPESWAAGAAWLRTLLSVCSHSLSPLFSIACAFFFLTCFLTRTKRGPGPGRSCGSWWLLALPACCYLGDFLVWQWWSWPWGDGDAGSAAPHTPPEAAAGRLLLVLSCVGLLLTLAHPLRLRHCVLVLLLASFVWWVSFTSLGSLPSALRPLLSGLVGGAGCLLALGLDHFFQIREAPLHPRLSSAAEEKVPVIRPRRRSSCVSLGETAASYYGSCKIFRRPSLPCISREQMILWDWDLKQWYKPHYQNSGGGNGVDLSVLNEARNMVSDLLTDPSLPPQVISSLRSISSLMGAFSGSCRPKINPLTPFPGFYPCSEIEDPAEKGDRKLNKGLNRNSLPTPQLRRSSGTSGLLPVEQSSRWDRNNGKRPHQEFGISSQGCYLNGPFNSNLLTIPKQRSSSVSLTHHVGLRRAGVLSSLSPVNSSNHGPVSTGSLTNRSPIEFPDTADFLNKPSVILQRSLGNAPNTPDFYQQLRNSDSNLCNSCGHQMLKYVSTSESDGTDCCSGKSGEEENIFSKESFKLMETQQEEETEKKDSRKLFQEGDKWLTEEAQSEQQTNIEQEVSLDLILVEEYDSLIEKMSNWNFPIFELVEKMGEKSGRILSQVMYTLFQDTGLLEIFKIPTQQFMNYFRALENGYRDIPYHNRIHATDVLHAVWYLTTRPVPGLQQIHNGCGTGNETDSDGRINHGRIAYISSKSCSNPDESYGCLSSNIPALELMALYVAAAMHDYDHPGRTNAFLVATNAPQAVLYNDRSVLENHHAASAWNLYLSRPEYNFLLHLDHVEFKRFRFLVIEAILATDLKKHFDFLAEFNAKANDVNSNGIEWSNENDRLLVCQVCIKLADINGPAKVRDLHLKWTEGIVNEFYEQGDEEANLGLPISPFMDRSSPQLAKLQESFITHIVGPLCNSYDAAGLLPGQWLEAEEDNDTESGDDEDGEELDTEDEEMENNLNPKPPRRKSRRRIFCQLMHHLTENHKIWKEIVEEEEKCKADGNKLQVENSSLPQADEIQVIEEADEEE
# Description: (§4) The inhibitory activity of Compound B was assessed against human PDE3A and PDE3B and was compared to cilostazol (a PDE3 inhibitor) in the enzymatic phosphodiesterase assay using Caliper mobility shift assay (2. Card A1, Caldwell C, Min H et al: High-throughput biochemical kinase selectivity assays: panel development and screening applications. J Biomol Screen. (2009); 14(1):31-42.). This method is based on change in charge and electrophoretic separation of product from fluorescently labeled substrate iFL-cAMP. Assays were performed in a 26 μL volume in a 384 well plate. iFL-cAMP substrate was incubated, off-chip, in reaction buffer (100 mM HEPES (pH 7.5), 5 mM MgCl2 and 0.002% Brij35) in the presence of active enzymes (PDE3A and PDE3B) and test compounds at various concentrations. After incubation period, the reaction products and remaining substrate were measured. Detection was performed using EZ reader II. The concentration of compound inducing 50% of the response (IC50) was determined from each individual concentration-response curve using variable slope fits with Prism software (Graph Pad, San Diego, Calif., USA).
# human PDE3A = human PDE3A (Homo sapiens, UniProt Q14432); experiment: PDE3 inhibition assay, Caliper mobility shift (PDE3A); assay type: biochemical; conditions: iFL-cAMP substrate, read-out: absolute IC50 PDE3A
# Chain of human PDE3A (Q14432 whole entry): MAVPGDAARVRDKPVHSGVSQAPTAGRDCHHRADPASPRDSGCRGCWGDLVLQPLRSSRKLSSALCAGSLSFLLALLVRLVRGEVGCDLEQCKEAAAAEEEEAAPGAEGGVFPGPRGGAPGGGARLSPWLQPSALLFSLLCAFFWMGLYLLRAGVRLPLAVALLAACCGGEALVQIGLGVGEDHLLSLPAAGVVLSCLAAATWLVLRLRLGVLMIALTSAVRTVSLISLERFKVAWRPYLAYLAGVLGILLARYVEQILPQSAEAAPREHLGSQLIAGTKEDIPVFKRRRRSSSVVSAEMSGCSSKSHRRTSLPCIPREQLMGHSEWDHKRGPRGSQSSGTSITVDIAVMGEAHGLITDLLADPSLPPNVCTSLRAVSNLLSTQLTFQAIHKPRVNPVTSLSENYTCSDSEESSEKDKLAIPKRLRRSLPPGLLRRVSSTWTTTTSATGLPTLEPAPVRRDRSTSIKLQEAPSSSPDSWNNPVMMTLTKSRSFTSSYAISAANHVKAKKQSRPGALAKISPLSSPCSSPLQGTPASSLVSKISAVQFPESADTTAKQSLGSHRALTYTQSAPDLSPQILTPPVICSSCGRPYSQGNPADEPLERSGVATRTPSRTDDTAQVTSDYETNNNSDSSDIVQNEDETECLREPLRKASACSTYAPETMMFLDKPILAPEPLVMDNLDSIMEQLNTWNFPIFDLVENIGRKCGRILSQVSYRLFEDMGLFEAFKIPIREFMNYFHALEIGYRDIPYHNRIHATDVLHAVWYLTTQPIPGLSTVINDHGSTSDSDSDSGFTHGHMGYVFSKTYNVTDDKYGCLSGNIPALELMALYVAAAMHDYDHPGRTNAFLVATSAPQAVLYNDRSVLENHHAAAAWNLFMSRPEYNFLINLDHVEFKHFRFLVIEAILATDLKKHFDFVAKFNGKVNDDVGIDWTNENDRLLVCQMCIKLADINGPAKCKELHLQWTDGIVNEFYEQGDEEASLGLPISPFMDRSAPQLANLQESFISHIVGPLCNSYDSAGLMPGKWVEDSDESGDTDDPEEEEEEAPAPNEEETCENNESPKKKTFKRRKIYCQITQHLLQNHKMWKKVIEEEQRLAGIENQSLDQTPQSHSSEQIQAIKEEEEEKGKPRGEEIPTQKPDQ
# Description: as §4
# [8] = 0.1 mg/kg BID iv, 4 days of treatment, 1 animal
# [9] = 0.4 mg/kg BID iv, 4 days of treatment
# [10] = 1.6 mg/kg BID iv, 4 days of treatment
# [11] = 6.25 mg/kg BID iv, 4 days of treatment
# [12] = 12.5 mg/kg BID iv, 4 days of treatment
smiles,measurement,setting,value
"Cc1c(CN(C)C(=O)/C=C/c2cnc3c(c2)CCC(=O)N3COP(=O)(O)O)oc2ccccc12 [Compound A, {6-[(1E)-3-{methyl[(3-methyl-1-benzofuran-2-yl)methyl]amino}-3-oxoprop-1-en-1-yl]-2-oxo-3,4-dihydro-1,8-naphthyridin-1(2H)-yl}methyl dihydrogen phosphate]",mean reduction in bacterial burden compared to vehicle controls,[1],2.8 log10 CFU/g of bone
same,development of resistance,[1]; after the 3-week treatment period,No development of resistance
same,Bone cultures found negative (rats),[1],2/6
same,"bacterial counts in BM and bone, result in words",MRSA clinical strain [2],significant anti-staphylococcal activity
same,"Mean ± SD Δlog10 CFU/g of tissue (day 3-day 7), Bone marrow",MRSA clinical strain [2],−3.62 ± 0.67 log10 CFU/g of tissue
same,"Mean ± SD Δlog10 CFU/g of tissue (day 3-day 7), Epiphyseal bone",MRSA clinical strain [2],−2.52 ± 1.25 log10 CFU/g of tissue
same,"Δlog10 CFU/g of tissue (day 3-day 7), Bone marrow",MRSA clinical strain [3]; [8],−0.74 log10 CFU/g of tissue
same,"Δlog10 CFU/g of tissue (day 3-day 7), Epiphyseal bone",MRSA clinical strain [3]; [8],−1.02 log10 CFU/g of tissue
same,"Mean ± SD Δlog10 CFU/g of tissue (day 3-day 7), Bone marrow",MRSA clinical strain [3]; [9],−2.03 ± 1.11 ^a log10 CFU/g of tissue
same,"Mean ± SD Δlog10 CFU/g of tissue (day 3-day 7), Epiphyseal bone",MRSA clinical strain [3]; [9],−1.23 ± 0.93 ^b log10 CFU/g of tissue
same,"Mean ± SD Δlog10 CFU/g of tissue (day 3-day 7), Bone marrow",MRSA clinical strain [3]; [10],−3.18 ± 0.74 ^a log10 CFU/g of tissue
same,"Mean ± SD Δlog10 CFU/g of tissue (day 3-day 7), Epiphyseal bone",MRSA clinical strain [3]; [10],−1.53 ± 1.53 ^a log10 CFU/g of tissue
same,"Mean ± SD Δlog10 CFU/g of tissue (day 3-day 7), Bone marrow",MRSA clinical strain [3]; [11],−3.45 ± 1.53 ^a log10 CFU/g of tissue
same,"Mean ± SD Δlog10 CFU/g of tissue (day 3-day 7), Epiphyseal bone",MRSA clinical strain [3]; [11],−2.17 ± 0.72 ^a log10 CFU/g of tissue
same,"bacterial titers in BM and bone, result in words",MRSA clinical strain [3]; 12.5 mg/kg,significant reduction in bacterial titers
same,"Mean ± SD Δlog10 CFU/g of tissue (day 3-day 7), Bone marrow",MRSA clinical strain [3]; [12],−3.42 ± 0.96 ^a log10 CFU/g of tissue
same,"Mean ± SD Δlog10 CFU/g of tissue (day 3-day 7), Epiphyseal bone",MRSA clinical strain [3]; [12],−1.76 ± 0.74 ^a log10 CFU/g of tissue
same,"bacterial counts in BM and bone, result in words","MRSA clinical strain [3]; lower doses 6.25, 1.6, 0.4 and 0.1 mg/kg IV BID, down to the 0.4 mg/kg dose",significant reduction in bacterial counts
"Cc1c(CN(C)C(=O)/C=C/c2cnc3c(c2)CCC(=O)N3)oc2ccccc12 [Compound B, (E)-N-methyl-N-((3-methylbenzofuran-2-yl)methyl)-3-(7-oxo-5,6,7,8-tetrahydro-1,8-naphthyridin-3-yl)acrylamide]",Kp,[4],0.06 to 0.27
same,MIC,MRSA clinical strain [5]; Example 4 isolate,4 ng/mL
same,EC50,[6],1410 nM
same,relaxation of 1 μM noradrenaline pre-contracted preparations,[6]; at 10 μM,−69±9%
same,relaxant effects compared to vehicle control group (DMSO),[6]; at 3 and 10 μM,concentration-dependently relaxed
same,relaxant effects compared to vehicle control group (DMSO),[6]; from 0.03 to 1 μM,no relaxant effects
same,MIC,MRSA clinical strain [7],4 ng/mL
same,IC50,human PDE3B,703 nM
same,development of resistance,MRSA clinical strain [3]; after the 4-day treatment period,No development of resistance
same,IC50,human PDE3A,600 nM
"O=C1CCc2cc(OCCCCc3nnnn3C3CCCCC3)ccc2N1 [cilostazol, reference compound]",EC50,[6],832 nM
same,relaxation of 1 μM noradrenaline pre-contracted preparations,[6]; at 100 μM,−70±7%
same,relaxant effects compared to vehicle control group (DMSO),[6]; at 10 and 100 μM,concentration-dependently relaxed
same,relaxant effects compared to vehicle control group (DMSO),[6]; from 0.001 to 1 μM,no relaxant effects
same,IC50,human PDE3B,912 nM
same,IC50,human PDE3A,416 nM
C[C@@H]1O[C@@H]1P(=O)(O)O [fosfomycin],mean reduction in bacterial burden compared to vehicle controls,[1],3.3 log10 CFU/g of bone
same,Bone cultures found negative (rats),[1],2/6
"CN[C@H](CC(C)C)C(=O)N[C@H]1C(=O)N[C@@H](CC(N)=O)C(=O)N[C@H]2C(=O)N[C@H]3C(=O)N[C@H](C(=O)N[C@H](C(=O)O)c4cc(O)cc(O)c4-c4cc3ccc4O)[C@H](O)c3ccc(c(Cl)c3)Oc3cc2cc(c3O[C@@H]2O[C@H](CO)[C@@H](O)[C@H](O)[C@H]2O[C@H]2C[C@](C)(N)[C@H](O)[C@H](C)O2)Oc2ccc(cc2Cl)[C@H]1O [vancomycin, reference compound]",MIC,MRSA clinical strain [5],1000 ng/mL
same,mean reduction in bacterial burden compared to vehicle controls,[1],no statistically significant reduction
same,Bone cultures found negative (rats),[1],0/6
same,"bacterial counts in BM and bone, result in words",MRSA clinical strain [2],No significant difference
same,"Mean ± SD Δlog10 CFU/g of tissue (day 3-day 7), Bone marrow",MRSA clinical strain [2],−1.05 ± 1.30 log10 CFU/g of tissue
same,"Mean ± SD Δlog10 CFU/g of tissue (day 3-day 7), Epiphyseal bone",MRSA clinical strain [2],−0.49 ± 0.65 log10 CFU/g of tissue
